{"source": "patent US20070093743A1", "about": "“Iontophoresis Drug Delivery Device Providing Acceptable Depth and Duration of Dermal Anesthesia” (Vyteris, Inc., priority 2005, published 2007)", "origin": "cited, not measured here"}
{"conditions": "iontophoresis in vitro across human skin"}
{"smiles": "CCN(CC)CCOC(=O)c1ccc(N)cc1", "note": "[procaine]", "cumulative delivery compared with lidocaine": "slightly greater delivery"}
{"smiles": "CCCNC(C)C(=O)Nc1ccccc1C", "note": "(stereo not drawn) [prilocaine]", "cumulative delivery compared with lidocaine": "slightly greater delivery"}
{"smiles": "CCCN(CC)C(CC)C(=O)Nc1c(C)cccc1C", "note": "(stereo not drawn) [etidocaine]", "cumulative delivery compared with lidocaine": "slightly greater delivery"}
